Data as given in the supplement of paper PMC10702517.
± gives the standard deviation.

Legend:
[1] = chemical recovery from spiked human plasma; higher = better extraction; conditions: pooled human plasma
[2] = chemical recovery into PDMS from spiked human plasma; higher = better extraction; conditions: pooled human plasma, extraction method: PES with PDMS
[3] = chemical recovery by SPE of plasma after PDMS sampling; higher = better extraction; conditions: pooled human plasma, extraction method: HLB SPE of plasma after PES
[4] = extraction method: SPE only (HLB 96-well), PES comparison experiment
[5] = extraction method: solvent precipitation (ACN + hexane)
[6] = extraction method: PES+SPE (3 d PDMS equilibration then HLB SPE)
[7] = extraction method: SPE only (HLB 96-well)
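For chemical recovery by SPE of plasma after PDMS sampling in this document: over 400 spiked chemicals quantified by LC-HRMS or GC-HRMS via internal standard calibration, recovery relative to spike mix added to unspiked plasma extract to correct matrix effects.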

Structure (SMILES) | chemical recovery [1, 4] [%] | chemical recovery into PDMS ([2]; equilibration time (d): 1) [%] | chemical recovery into PDMS ([2]; equilibration time (d): 3) [%] | chemical recovery into PDMS ([2]; equilibration time (d): 6) [%] | chemical recovery by SPE of plasma ([3]; equilibration time (d): 1) [%] | chemical recovery by SPE of plasma ([3]; equilibration time (d): 3) [%] | chemical recovery by SPE of plasma ([3]; equilibration time (d): 6) [%] | chemical recovery [1, 5] [%] | chemical recovery [1, 6] [%] | chemical recovery [1, 7] [%]
CCCN(CCOc1c(Cl)cc(Cl)cc1Cl)C(=O)NC=O | 43.4 ± 6.2 | 39.6 ± 3.2 | 42.2 ± 4.2 | 43.2 ± 2.2 | 3.65 ± 3.2 | 2.44 ± 2.1 | 0.703 ± 1.2 |  |  | 
Fc1ccc([C@]2(Cn3cncn3)O[C@H]2c2ccccc2Cl)cc1 (racemic) [Epoxiconazole] | 47.4 ± 6.8 | 43.7 ± 1.7 | 48.1 ± 4.1 | 46.5 ± 5.9 | 0.968 ± 0.044 | 0.628 ± 0.21 | 0.285 ± 0.018 | 73.6 ± 3 |  | 
CN1CCN(C)C1=O [1,3-Dimethyl-2-imidazolidinone] | 13.6 ± 8.1 | 3.18 ± 2.2 | 2.57 ± 3 | 3.27 ± 3.2 | 4.06 ± 4.7 | 4.29 ± 3.7 | 8.78 ± 4.2 |  |  | 7.04 ± 5.9
Nc1cccc2ccccc12 [1-Naphthylamine] | 22 ± 3 |  | 0.33 ± 0.13 | 0.338 ± 0.048 | 11.2 ± 0.88 | 12.3 ± 2.6 | 6.22 ± 5.4 |  | 4.07 ± 2.1 | 16.7 ± 8.8
c1ccc(-c2cccc3ccccc23)cc1 [1-Phenylnaphthalene] | 17.3 ± 3 | 70.3 ± 20 | 70.6 ± 5.2 | 78.1 ± 11 |  | 2.49 ± 2.2 |  |  | 45.1 ± 7.6 | 12.2 ± 3
c1ccc2[nH]nnc2c1 [1H-Benzotriazole] | 53.9 ± 5.8 | 4.24 ± 0.36 | 6.44 ± 1 | 7.25 ± 1.5 | 47.4 ± 3.6 | 46.6 ± 3.2 | 39.9 ± 2.1 | 62.5 ± 4.5 | 51.7 ± 3.9 | 48.2 ± 2.7
c1ccc2sc(N3CCOCC3)nc2c1 [2(4-morpholinyl)benzothiazole] | 40.1 ± 5.6 | 27.1 ± 0.46 | 29.2 ± 2.2 | 30.7 ± 0.94 | 1.2 ± 0.1 | 1.41 ± 0.23 | 0.805 ± 0.046 | 67.9 ± 3.3 | 41.7 ± 6.4 | 39.6 ± 2.1
CC1(C)CC(=O)CC(C)(C)N1 [2,2,6,6-Tetramethyl-4 piperidone] |  | 0.707 ± 0.49 | 1.17 ± 0.15 | 0.677 ± 0.17 | 2.44 ± 4 |  | 1.13 ± 0.92 |  |  | 
Nc1ccc2c(n1)[nH]c1ccccc12 [2-Amino-9H-pyrido[2,3-b]indole (AalphaC)] | 45.3 ± 7.1 | 3 ± 0.11 | 3.49 ± 1.2 | 5.65 ± 2.5 | 19.66 ± 0.18 | 14.4 ± 1.5 | 9.97 ± 0.52 | 70.8 ± 5.4 | 17 ± 2.6 | 28.5 ± 2.1
Clc1ccc2ccccc2c1 [2-Chloronaphthalene] | 0.564 ± 0.39 | 10.2 ± 1.7 |  |  | 3.42 ± 3 |  |  |  |  | 0.106 ± 0.18
CCCCCCCCn1sccc1=O [2-Octyl-4-isothiazolin-3-one] | 21.6 ± 2.9 | 33.3 ± 1.9 | 35.5 ± 1.5 | 36.3 ± 1.2 | 1.24 ± 0.64 | 1.03 ± 0.27 | 0.459 ± 0.03 | 40.8 ± 4.6 |  | 29.4 ± 2.2
Nc1ccc(-c2ccc(N)c(Cl)c2)cc1Cl [3,3'-Dichlorobenzidine] | 24.4 ± 3.6 | 3.87 ± 0.23 | 3.04 ± 0.4 | 3.28 ± 0.46 | 16.1 ± 5.5 | 17.3 ± 2 | 14.6 ± 2.8 | 72 ± 6.2 | 39.1 ± 7.4 | 54.8 ± 17
Cc1cc(Cc2ccc(N)c(C)c2)ccc1N [4,4'-Methylene-bis(2-methyl aniline)] | 24.5 ± 4 | 0.0153 ± 0.026 | 0.00421 ± 0.0073 | 0.0106 ± 0.018 | 4.29 ± 0.41 | 4.74 ± 0.39 | 2.61 ± 0.21 | 65 ± 9.2 | 1.31 ± 0.94 | 30.3 ± 9.8
ClC(Cl)=C(c1ccc(Cl)cc1)c1ccc(Cl)cc1 [4,4-DDE] | 13 ± 3 | 83.8 ± 12 | 87.9 ± 3.9 | 93 ± 13 | 0.964 ± 1 | 0.268 ± 0.47 |  |  |  | 

The remaining lines, values ahead:

chemical recovery [1, 4] [%] | chemical recovery into PDMS ([2]; equilibration time (d): 1) [%] | chemical recovery into PDMS ([2]; equilibration time (d): 3) [%] | chemical recovery into PDMS ([2]; equilibration time (d): 6) [%] | chemical recovery by SPE of plasma ([3]; equilibration time (d): 1) [%] | chemical recovery by SPE of plasma ([3]; equilibration time (d): 3) [%] | chemical recovery by SPE of plasma ([3]; equilibration time (d): 6) [%] | chemical recovery [1, 5] [%] | chemical recovery [1, 6] [%] | chemical recovery [1, 7] [%] | Structure (SMILES)
24.5 ± 5.8 | 15.9 ± 6.2 | 9.35 ± 5.2 | 13.5 ± 8.6 | 1.42 ± 1.2 |  |  |  |  |  | C#C[C@]1(OC(C)=O)CC[C@H]2[C@@H]3CCC4=CC(=NO)CC[C@@H]4[C@H]3CC[C@@]21CC (mixture of isomers) [Norgestimate]
39.6 ± 10 | 0.0493 ± 0.043 | 0.0293 ± 0.027 | 0.0825 ± 0.0051 | 17.2 ± 0.9 | 12.8 ± 1.7 | 10.5 ± 1.8 |  | 7.76 ± 0.64 | 42.6 ± 2.9 | CC(=O)N1CCN(c2ccc(OC[C@H]3CO[C@](Cn4ccnc4)(c4ccc(Cl)cc4Cl)O3)cc2)CC1 (racemic) [Ketoconazole]
57 ± 6.3 | 0.268 ± 0.04 | 0.296 ± 0.12 | 0.344 ± 0.065 | 47.5 ± 9.1 | 46.9 ± 8.3 | 47 ± 2.5 | 67 ± 4.5 |  | 47.3 ± 5.1 | O=C(O)c1ccc(Cl)cc1Cl [2,4-Dichlorobenzoic acid]
23.9 ± 4.7 | 36.6 ± 1.5 | 40.9 ± 4 | 43.5 ± 3.3 | 0.712 ± 0.79 | 0.276 ± 0.48 |  |  |  |  | O=Cc1ccccc1Nc1ccccc1Cl [2-(2-(Chlorophenyl)amino)benzaldehyde]
 | 6.56 ± 0.99 | 9.84 ± 3 | 5.91 ± 1.3 | 0.45 ± 0.78 | 1.14 ± 0.62 | 0.431 ± 0.75 |  |  |  | Nc1ccccc1Br [2-Bromoaniline]
58.8 ± 4.3 | 9.18 ± 0.11 | 11.1 ± 0.48 | 8.95 ± 1.5 | 36.2 ± 6 | 37.7 ± 2.4 | 30.3 ± 2.5 | 71.6 ± 5.8 | 63.5 ± 7 | 49.6 ± 2.7 | O=c1[nH]c2ccccc2s1 [2-Hydroxybenzothiazole]
51.6 ± 4.5 | 0.215 ± 0.2 | 0.668 ± 0.2 | 0.788 ± 0.13 | 57.7 ± 11 | 55.6 ± 6.7 | 51.7 ± 11 | 68.2 ± 1.6 | 48.1 ± 3.7 | 44.7 ± 3.9 | NC(=O)N1c2ccccc2C=Cc2cc(O)ccc21 [2-Hydroxycarbamazepine]
52.9 ± 8.4 | 10.9 ± 0.65 | 15.6 ± 2 | 17.1 ± 2.4 | 36.8 ± 5.3 | 30.9 ± 3.2 | 24 ± 2.1 | 78.2 ± 3.6 | 57.1 ± 5.5 | 43 ± 3.2 | O=c1ccc2ccccc2[nH]1 [2-Hydroxyquinoline]
0.912 ± 0.53 | 8.73 ± 6 |  | 5.9 ± 0.22 | 0.0827 ± 0.14 | 0.253 ± 0.11 | 0.0669 ± 0.12 |  |  | 0.149 ± 0.18 | Cc1nc2ccccc2s1 [2-Methylbenzothiazole]
49.3 ± 6.2 | 0.856 ± 1.5 | 4.96 ± 0.6 | 5.93 ± 0.81 | 40.1 ± 4.3 | 40.9 ± 3 | 36.5 ± 1.1 | 71.8 ± 3.8 | 56.4 ± 2.7 | 43.9 ± 3.2 | NC(=O)Nc1ccc(Cl)c(Cl)c1 [3,4-Dichlorophenylurea]
